Laboratory results published in publication PMC9886892, “Imidazolium salts as an alternative for anti-Leishmania drugs: Oxidative and immunomodulatory activities” (Frontiers in Immunology, 2023).
Read-outs that look alike come from different tables or passages of the source.

Key:
[1] = system: L. amazonensis promastigotes; assay: microbe, parasite or virus in culture; settings: Leishmania amazonensis, 48 h
Procedure: (§1) Subsequently, 0.5 mg/mL of 3-(4,5-dimethylthiazol-2-yl)-2,5-diphenyltetrazolium bromide (MTT, Sigma-Aldrich®, St. Louis, MO, USA) was added and the incubations continued for an additional 4 h at 26 °C. The purple formazan product that was formed by the action of mitochondrial enzymes in living cells was solubilized by the addition of acidic isopropanol, and the absorbance at 570 nm was measured using a microplate reader spectrophotometer EZ Read 400 from Biochrom. […] The 50% inhibitory concentration (IC50) value for each compound was determined. The survival rate was calculated according to the formula: OD in treated group/OD of untreated group x 100. The 50% inhibitory concentration (IC50) value for each compound was determined by nonlinear regression analysis using GraphPad Prism 5.03 software.

[2] = system: L. amazonensis promastigotes; settings: for L. amazonensis mortality in the screening test: 100 µM screening concentration
Procedure: as §1

[3] = system: L. amazonensis promastigotes; assay: Mitochondrial membrane potential (rhodamine 123, flow cytometry); assay type: cell-based, Leishmania (L.) amazonensis; settings: IS 2-fold IC50, 6 h; amphotericin B 0.4 µM; hydrogen peroxide 2 mM
Excerpt: A total of 30,000 events were acquired in the region that corresponded to the parasites. Histograms were build using the CellQuest Pro software (Joseph Trotter, Scripps Research Institute, La Jolla, CA, USA).

[4] = system: L. infantum chagasi promastigotes; assay: microbe, parasite or virus in culture; settings: Leishmania infantum; for IC50: 48 h
Procedure: as §1

[5] = system: L. amazonensis promastigotes; assay: Detection of reactive oxygen species production (DCF-DA, flow cytometry); assay type: cell-based, Leishmania (L.) amazonensis; settings: IS 2-fold IC50, 6 h; amphotericin B 0.4 µM; hydrogen peroxide 2 mM
Procedure: ROS generation was quantified using the dye 2′,7′-dichlorofluorescein diacetate (DCF-DA, Sigma-Aldrich) and flow cytometer analysis ([13], [30], [31]). […] Then, cells were washed with PBS and incubated with 0.5 mL of 10 µM DCF-DA for 30 min at room temperature. After being washed with PBS, cells were resuspended in 0.5 mL PBS and analysed using a BD FACSCalibur (Becton–Dickinson, Rutherford, NJ, USA) flow cytometer and CellQuest Pro software (Joseph Trotter, Scripps Research Institute, La Jolla, CA, USA) using the blue argon-ion 488 nm laser with the FL1 filter channel. A total of 30,000 events were acquired in the region that corresponded to living parasite.

[6] = system: L. infantum chagasi promastigotes; settings: read-out: IC50 (CI 95%): concentration of compound that causes 50% of L. infantum chagasi promastigotes mortality, 48 h, MTT
Procedure: as §1

human erythrocytes [7] = settings: cited from earlier work
[8] = system: Macrophages RAW 264.7 cell line; settings: read-out: CC50 towards macrophages (previous study); cited from earlier work
[9] = system: L. amazonensis promastigotes; set-up: method as in PMID 30077823; settings: read-out: IC50 for L. amazonensis promastigotes (previous study); cited from earlier work
human erythrocytes [10] = settings: for RBC50 (CI 95%): concentration of compound that causes 50% of red blood cell hemolysis: 60 min
Procedure: Triton X-100 1% was used as positive control. The hemolytic assay was performed according to the procedure used by ([13]). […] The microplate was incubated at 37°C under agitation (90 rpm) for 60 min. Then, the suspension was centrifuged at 3,000 rpm for 5 min, and the absorbance of the supernatant was measured at 540 nm using a spectrophotometer EZ Read 400 from Biochrom. Triton X-100 1% and PBS were used as positive and negative control, respectively. […] The selectivity index (SI) (CC50 or RBC50/IC50 against L. amazonensis) were determined for each compound.

[11] = system: L. amazonensis amastigotes in RAW 264.7 macrophages; assay: Intramacrophage anti-amastigote activity; assay type: cell-based, Leishmania (L.) amazonensis
Procedure: The anti-amastigote assay was performed as previously described ([13]). Macrophages RAW 264.7 cell line (ATCC) were cultured in DMEM plus 10% fetal bovine serum (FBS), penicillin (100 U/mL) and streptomycin (100 µg/mL) until reaching 90% confluence, when were distributed into 96-well microplates at a concentration of 2 x 10^5 cells/well in the presence of DMEM. […] The leishmanicidal activity of macrophages was assessed by determining the number of viable parasites (4 replicates) using a hemocytometer.

[12] = system: Macrophages RAW 264.7 cell line
in vitro = settings: mouse; for CC50 at 48 h: CC50 (CI 95%): concentration of compound that causes 50% of macrophage mortality
[13] = system: L. amazonensis promastigotes; assay: Cell membrane integrity (propidium iodide, flow cytometry); assay type: cell-based, Leishmania (L.) amazonensis; settings: 1.8 µM (IC50), 48 h
Procedure: After 48 h at 26°C, the parasites were harvested and washed twice with PBS, resuspended and incubated with 100 μL of propidium iodide (PI – Sigma–Aldrich) 50 μg/mL at 26°C for 15 min. Following, each sample was completed with 400 μL of PBS and a total of 20,000 events were acquired and analyzed on BD FACScalibur flow cytometer and CellQuest Pro software. PI fluorescence intensity was quantified as the percentage of the fluorescence compared with untreated promastigotes ([30]). Results were obtained from two independent experiments performed in triplicate.

[14] = read-out: mortality of L. amazonensis promastigotes, 5 µM, 48 h
[15] = Leishmania amazonensis, RAW264.7, 48 h, read-out: IC50 (CI 95%): concentration of compound that causes 50% of L. amazonensis amastigotes mortality, infected RAW 264.7 macrophages, 48 h
[16] = read-out: IC50 (CI 95%): concentration of compound that causes 50% of L. infantum chagasi promastigotes mortality, promastigotes, 48 h, MTT

SMILES | mortality at 5 µM [1, 14] | IC50 [2] | mitochondrial membrane potential (ΔΨm) alteration [3] | IC50 [6] | SI: selectivity index, ratio of CC50 for RBC hemolysis/IC50 for L. amazonensis amastigotes (human erythrocytes [10]) | SI: selectivity index, ratio of CC50 for RBC hemolysis/IC50 for L. amazonensis promastigotes (human erythrocytes [10]) | IC50 [11, 15] | L. amazonensis mortality in the screening test ([2]; 48 h) | SI: selectivity index, ratio of CC50 for macrophage/IC50 for L. amazonensis amastigotes [12] | SI: selectivity index, ratio of CC50 for macrophage/IC50 for L. amazonensis promastigotes [12] | other results
C[C@@H]1[C@H](O)[C@@H](C)/C=C/C=C/C=C/C=C/C=C/C=C/C=C/[C@H](O[C@@H]2O[C@H](C)[C@@H](O)[C@H](N)[C@@H]2O)C[C@@H]2O[C@](O)(C[C@@H](O)C[C@@H](O)[C@H](O)CC[C@@H](O)C[C@@H](O)CC(=O)O[C@H]1C)C[C@H](O)[C@H]2C(=O)O [amphotericin B, reference compound] | 100% | 0.4 µM | mitochondrial depolarization |  |  |  |  |  |  |  | mortality at 5 µM ([4]; read-out: mortality of L. infantum chagasi promastigotes): 100%; ROS production [5]: significant elevation in ROS production
CCCCCCCCCCCCCCCCn1cc[n+](C)c1.CS(=O)(=O)[O-] [C16MImMeS, 1-hexadecyl-3-methylimidazolium methanesulfonate] |  |  |  | 10.8 µM |  |  |  |  |  |  | RBC50 erythrocytes (previous study) (human erythrocytes [7]): 36.9 µM; CC50 [8]: 11.5 µM; IC50 [9]: 0.75 µM
CCCCCCCCCCCCCCCCn1cc[n+](C)c1 [C16MImPF6, 1-hexadecyl-3-methylimidazolium hexafluorophosphate] | 37% | 6.9 µM | significant ΔΨm depolarization | 26.3 µM | 82.7 | 3.6 | 0.3 µM | 100% | 56 | 2.4 | RBC50 (CI 95%): concentration of compound that causes 50% of red blood cell hemolysis (human erythrocytes [10]; human): 24.8 (22.9-26.8) µM; CC50 at 48 h (in vitro): 16.8 µM
CCCCCCCCCCCCCCCCn1cc[n+](C)c1 [C16MImNTf2, 1-hexadecyl-3-methylimidazolium bis(trifluoromethylsulfonyl)imide] |  |  |  |  |  |  |  |  |  |  | IC50 [9]: 1.64 µM
CCCCCCCCCCCCCCCCn1cc[n+](C)c1C.[Cl-] [C16M2ImCl, 1-hexadecyl-2,3-dimethylimidazolium chloride] | 85% | 4.1 µM | significant ΔΨm depolarization |  | 108 | 5.3 | 0.2 µM | 100% | 99 | 4.8 | RBC50 (CI 95%): concentration of compound that causes 50% of red blood cell hemolysis (human erythrocytes [10]; human): 21.6 (20.8-22.5) µM; IC50 [4, 16]: 15.4 µM; CC50 at 48 h (in vitro; RAW cells, 48 h, MTT): 19.8 µM
CCCCCCCCCCCCCCCCn1cc[n+](C)c1 [C16MImCl, 1-hexadecyl-3-methylimidazolium chloride] |  |  |  | 9.9 µM |  |  |  |  |  |  | IC50 [9]: 1.23 µM
OO [H2O2, hydrogen peroxide, reference compound] |  |  | mitochondrial depolarization |  |  |  |  |  |  |  | ROS production [5]: significant elevation in ROS production
CCCCCCCCCCn1cc[n+](C)c1.CS(=O)(=O)[O-] [C10MImMeS, 1-decyl-3-methylimidazolium methanesulfonate] | 60% | 11.6 µM | ΔΨm hyperpolarization | > 100 µM |  | > 8.6 | 0.3 µM | 100% | 256 | 6.6 | concentration up to which no significant hemolysis (human erythrocytes [10]; human erythrocytes): up to 40 µM; RBC50 (CI 95%): concentration of compound that causes 50% of red blood cell hemolysis (human erythrocytes [10]; human red blood cells, 37°C): > 100 µM; concentration up to which more than 90% of the macrophages kept alive ([12]; mouse, 48 h): up to 50 µM; viability at 48 h (in vitro): 89%; CC50 at 48 h (in vitro; RAW cells, 48 h, MTT): 76.9 µM
CCCCCCCCCCCCCCCCn1ccnc1 [C16Im, 1-hexadecylimidazole] |  |  |  |  | > 500 | > 6.8 | 0.2 µM | 100% | 275 | 3.8 | RBC50 (CI 95%): concentration of compound that causes 50% of red blood cell hemolysis (human erythrocytes [10]; human): > 100 µM; concentration causing significant parasite mortality ([2]; L. amazonensis promastigotes, 48 h): ≥ 10 µM; IC50 [4, 16]: 8.3 µM; CC50 at 48 h (in vitro): 54.9 µM
CCCCCCCCCCn1cc[n+](C)c1 [C10MImCl, 1-decyl-3-methylimidazolium chloride] |  |  |  |  |  |  |  |  |  |  | IC50 [4, 16]: 115 µM; IC50 [9]: 2.31 µM
CCCCCCCCCCCCCCCC[n+]1ccccc1.O.[Cl-] [C16PyrCl, 1-hexadecylpyridinium chloride monohydrate, reference compound] |  |  |  |  |  |  |  | 100% |  |  | 
CCCCCCCCCCCCCCCCn1c(C)c(C)[n+](C)c1C.[Cl-] [C16M4ImCl, 1-hexadecyl-2,3,4,5-tetramethylimidazolium chloride] |  |  | significant ΔΨm depolarization |  | 78 | 8.7 |  | 100% | 89 | 10 | RBC50 (CI 95%): concentration of compound that causes 50% of red blood cell hemolysis (human erythrocytes [10]; human red blood cells, 37°C): 15.6 (14.5-16.8) µM; IC50 ([11]; Leishmania amazonensis, RAW264.7, 48 h, read-out: IC50 (CI 95%): concentration of compound that causes 50% of L. amazonensis amastigotes mortality): 0.2 µM; IC50 ([1]; read-out: IC50 (CI 95%): concentration of compound that causes 50% of L. amazonensis promastigotes mortality): 1.8 µM; mortality at 5 µM ([1]; read-out: mortality of L. amazonensis promastigotes): 95%; L. amazonensis integrity (panoptic stain) [13]: total lysis of the parasites; IC50 ([4]; read-out: IC50 (CI 95%): concentration of compound that causes 50% of L. infantum chagasi promastigotes mortality): 14.9 µM; CC50 (in vitro): 17.8 µM; viability (in vitro): 90%
CCCCCCCCCCn1cc[n+](CCCCCCCCCC)c1C.[Cl-] [(C10)2MImCl, 1,3-Didecyl-2-methylimidazolium chloride] | 97% | 1.9 µM | significant ΔΨm depolarization |  | 105 | 11 | 0.2 µM | 100% | 82 | 8.6 | RBC50 (CI 95%): concentration of compound that causes 50% of red blood cell hemolysis (human erythrocytes [10]; human red blood cells, 37°C): 20.9 (20-21.9) µM; IC50 [4, 16]: 16.5 µM; viability at 48 h (in vitro): 94%; CC50 at 48 h (in vitro; RAW cells, 48 h, MTT): 16.4 µM
CCCCn1cc[n+](C)c1.CS(=O)(=O)[O-] [C4MImMeS, 1-Butyl-3-methylimidazolium methanesulfonate] |  |  |  |  |  |  |  | without activity |  |  | 
CCCCCCCCCCCCCCCCn1cc[n+](C)c1.[Br-] [C16MImBr, 1-hexadecyl-3-methylimidazolium bromide] |  | 6 µM | significant ΔΨm depolarization | 29.7 µM | 114 | 3.8 |  | 100% | 80 | 2.7 | RBC50 (CI 95%): concentration of compound that causes 50% of red blood cell hemolysis (human erythrocytes [10]; human red blood cells, 37°C): 22.8 (21.7-24) µM; IC50 ([11]; read-out: IC50 (CI 95%): concentration of compound that causes 50% of L. amazonensis amastigotes mortality, infected RAW 264.7 macrophages, 48 h): 0.2 µM; mortality of L. amazonensis promastigotes ([2]; 5 µM, 48 h): 42%; CC50 at 48 h (in vitro; RAW cells, 48 h, MTT): 16 µM
